Laboratory results from patent US4021563A, “Method of treating cardiac arrhythmia with γ-piperidino-butyrophenones” (priority 1975, dated 1977).
“Also recorded” adds a separate entry of the source. Structures can show the parent of a compound that is named as a salt.

Tests used:
[1] = test system: ouabain-induced arrhythmia; assay: ouabain-induced arrhythmia in conscious rabbits, curative effect (reversal); type: in vivo, rabbit; conditions: reversal at least 1 min within 10 minutes
Description: (§1) Thus, acid-addition salts formed by admixture of a γ-piperidino-butyrophenone base with an equivalent of an acid, suitably in a neutral solvent, are formed with such acids as sulfuric, phosphoric, hydrochloric, hydrobromic, citric, lactic, tartaric, acetic, and related acids. For purposes of this invention, the substituted γ-piperidino-butyrophenones are equivalent to their non-toxic acid-addition salts. The antiarrhythmic activity of the compounds of the present invention compared with that of some clinically used antiarrhythmic drugs was determined as follows.
(§2) Intravenous infusion of ouabain to conscious rabbits produces ventricular arrhythmias of short duration. An increase in the minimal dose of ouabain required to produce an arrhythmia may be taken as a measure of the antiarrhythmic action of the drug.
A substance was considered curative, if it was able to reverse the ouabain-induced arrhythmia for at least 1 min. within 10 minutes after the injection.

[2] = toxic effects of active doses in antiarrhythmic tests
Description: as §1, with “follows. The compounds were tested for their ability to prevent and reverse ouabain-induced arrhythmias in conscious rabbits, and the method used was essentially according to Basil et al. (Brit. J. Pharmacol. 1974, 50, 323- 33).” for “follows.”

[3] = test system: ouabain-induced arrhythmias; assay: ouabain-induced arrhythmia in conscious rabbits, prophylactic effect; type: in vivo, rabbit; conditions: for arrhythmogenic dose of ouabain increased to more than 110 %, number of rabbits: 1 minute before ouabain; for arrhythmogenic dose of ouabain in % of control arrhythmogenic dose, m ± SD: physiol. saline 96 ± 14; for antiarrhythmic activity compared with clinically used drugs: prophylactic and curative effect
Description: as §1, §2
In all experiments with drug treatment the control dose of ouabain required to produce arrhythmias in an animal was obtained the day before.
The test compound was administered intravenously to rabbits 1 minute before the ouabain challenge, and the arrhythmogenic dose of ouabain after treatment was evaluated in percent of the control arrhythmogenic dose. If this dose amounts to more the 110 % of the control arrhythmogenic dose recorded the day before, the test compound is regarded as having antiarrhymic activity.

cardiac arrhythmia = conditions: cited from earlier work
[4] = test system: arrhythmia induced by aconitine; conditions: in vivo; cited from earlier work
[5] = test system: ouabain-induced ventricular tachycardia and fibrillation; conditions: anaesthetized guinea pigs, effective dosage; cited from earlier work
[6] = test system: arrhythmia induced by aconitine; assay: aconitine-induced arrhythmia; type: in vivo; conditions: 0.1-10.0 mg/kg
[7] = test system: cardiac effects of catecholamines; conditions: Tuck 1973; Petersen 1974; cited from earlier work
tranquilizing effect = conditions: in vivo
[8] = test system: ventricular extrasystoles (VES); assay: double-blind clinical test, ventricular extrasystoles in coronary care unit patients; type: in vivo, human patients
Protocol: All patients with ventricular extrasystoles (VES) admitted to a coronary care unit suspected of having acute myocardial infarction are included in the investigation. This was carried out in a double-blind manner with metylperone against placebo (metylperone injectable without metylperone). When a patient arrives at the unit, they are monitored on an oscilloscope for registration of the electrocardiogram (ECG). In a 1 hour long period of observation the patient is characterized in respect to the type and the frequency of the arrhythmia. Depending on this and on the estimated age of the infarction, the patient is distributed to one of four groups. A bottle (metylperone or placebo) is chosen from a box, containing identical bottles, and in the following 10 minutes a total of 50 mg metylperone (or placebo) is injected intravenously as 5 injections with 2 min. intervals. The ECG registration is continued for 2 hours. All ECGes in the three hours period are analyzed manually and the arrhythmias are recorded according to frequency and type. The psychic status and the cardiovascular status are checked several times during the three hours.

ventricular arrhythmia = assay: intravenous metylperone in patients with myocardial infarction, ventricular arrhythmia and side effects; type: in vivo, human patients
Description: Equi-antiarrhythmic doses of previously used drugs produce various cardiovascular side effects as well as agitation and confusion.

Compound: CCCC1(CC)CCN(CCCC(=O)c2ccc(F)cc2)CC1 [FG 5226, 4-fluoro-γ-(4-ethyl-4-n-propyl-piperidino)-butyrophenone]
- curative effect, number of rabbits reversed/tested ([1]; 0.1 mg/kg i.v.): 3/4
- curative effect, number of rabbits reversed/tested ([1]; 1.0 mg/kg i.v.): 2/4
- toxic effects of the active doses ([2]; active antiarrhythmic doses): In contrast to metylperone and FG 5226 the active doses of the known antiarrhythmic drugs produced various toxic effects
- arrhythmogenic dose of ouabain increased to more than 110 %, number of rabbits ([3]; 0.1 mg/kg i.v., 4 rabbits): 3 number of rabbits
- arrhythmogenic dose of ouabain in % of control arrhythmogenic dose, m ± SD ([3]; 0.1 mg/kg i.v.): 109 ± 21 % of control arrhythmogenic do
- antiarrhythmic activity compared with clinically used drugs ([3]; 0.1 mg/kg i.v.): more effective than lidocaine 1-5 mg/kg, procainamide 1- 10 mg/kg, quinidine 1 mg/kg, and propranolol 0.5 mg/kg; also recorded: equiactive (i.e., equally active) with quinidine 10 mg/kg, and propranolol 2 mg/kg
- arrhythmogenic dose of ouabain increased to more than 110 %, number of rabbits ([3]; 1.0 mg/kg i.v., 4 rabbits): 1 number of rabbits
- arrhythmogenic dose of ouabain in % of control arrhythmogenic dose, m ± SD ([3]; 1.0 mg/kg i.v.): 93 ± 18 % of control arrhythmogenic do

Compound: NC(=O)OC1CCN(CCCC(=O)c2ccc(F)cc2)C2CCCCC12 (stereo not shown) [L 7810]
- antiarrhythmic properties / activity of prior art compounds (cardiac arrhythmia): exert antiarrhythmic properties
- inhibition of arrhythmia induced by aconitine [4]: inhibit arrhythmia induced by aconitine
- antagonism of ouabain-induced ventricular tachycardia and fibrillation [5]: 0.3 to 3 mg/kg

Compound: CCN(CC)CC(=O)Nc1c(C)cccc1C [Lidocaine, lidocaine]
- curative effect, number of rabbits reversed/tested ([1]; 1.0 mg/kg i.v.): 1/3
- curative effect, number of rabbits reversed/tested ([1]; 5.0 mg/kg i.v.): 2/4
- arrhythmogenic dose of ouabain increased to more than 110 %, number of rabbits ([3]; 1.0 mg/kg i.v., 4 rabbits): 0 number of rabbits
- arrhythmogenic dose of ouabain in % of control arrhythmogenic dose, m ± SD ([3]; 1.0 mg/kg i.v.): 73 ± 25 % of control arrhythmogenic do
- arrhythmogenic dose of ouabain increased to more than 110 %, number of rabbits ([3]; 5.0 mg/kg i.v., 5 rabbits): 0 number of rabbits
- arrhythmogenic dose of ouabain in % of control arrhythmogenic dose, m ± SD ([3]; 5.0 mg/kg i.v.): 91 ± 21 % of control arrhythmogenic do

Compound: CC1CCN(CCCC(=O)c2ccc(F)cc2)CC1 [Metylperone, 4-fluoro-γ-(4-methyl-piperidino)-butyrophenone hydrochloride]
- aconitine inhibitory effect [6]: no aconitine inhibitory effect
- potentiation of catecholamines [7]: does not potentiate the cardiac effects of catecholamines
- tranquilizing effect (tranquilizing effect): has a tranquilizing effect
- antiarrhythmic effect in patients with acute myocardial infarction ([8]; 50 mg i.v.): has an antiarrhythmic effect in patients with acute myocardial infarction
- mean total VES ± SD, 0 - 60 min. after inj. ([8]; AMI patients, N = 6, 50 mg i.v., placebo 418 ± 394): 212 ± 138
- mean total VES ± SD, 61 - 120 min. after inj. ([8]; AMI patients, N = 6, 50 mg i.v., placebo 644 ± 815): 93 ± 89
- mean total VES ± SD, control hour ([8]; AMI patients, N = 6, before injection (baseline)): 372 ± 148
- mean total VES ± SD, 0 - 60 min. after inj. ([8]; not AMI patients, N = 2, 50 mg i.v., placebo 643 ± 290): 251 ± 85
- mean total VES ± SD, 61 - 120 min. after inj. ([8]; not AMI patients, N = 2, 50 mg i.v., placebo 695 ± 240): 348 ± 28
- mean total VES ± SD, control hour ([8]; not AMI patients, N = 2, before injection (baseline)): 321 ± 18
- curative effect, number of rabbits reversed/tested ([1]; 0.1 mg/kg i.v.): 5/5
- curative effect, number of rabbits reversed/tested ([1]; 1.0 mg/kg i.v.): 5/5
- toxic effects of the active doses ([2]; in vivo): In contrast to metylperone and FG 5226 the active doses of the known antiarrhythmic drugs produced various toxic effects
- activity against ouabain-induced ventricular tachycardia in conscious rabbits ([3]; 0.1 mg/kg): extremely active
- arrhythmogenic dose of ouabain increased to more than 110 %, number of rabbits ([3]; 0.1 mg/kg i.v., 4 rabbits): 3 number of rabbits
- arrhythmogenic dose of ouabain in % of control arrhythmogenic dose, m ± SD ([3]; 0.1 mg/kg i.v.): 129 ± 20 % of control arrhythmogenic do
- antiarrhythmic activity compared with clinically used drugs ([3]; 0.1 mg/kg i.v., hydrochloride): more effective than lidocaine 1-5 mg/kg, procainamide 1- 10 mg/kg, quinidine 1 mg/kg, and propranolol 0.5 mg/kg; also recorded: equiactive (i.e., equally active) with quinidine 10 mg/kg, and propranolol 2 mg/kg
- arrhythmogenic dose of ouabain increased to more than 110 %, number of rabbits ([3]; 1.0 mg/kg i.v., 4 rabbits): 3 number of rabbits
- arrhythmogenic dose of ouabain in % of control arrhythmogenic dose, m ± SD ([3]; 1.0 mg/kg i.v.): 126 ± 30 % of control arrhythmogenic do
- side effects during treatment of cardiac arrhythmia (ventricular arrhythmia; human, in vivo): lack of side effects
- side effects in patients (ventricular arrhythmia; human, in vivo, iv): without producing side effects
- inhibition of ventricular arrhythmia in patients with myocardial infarction (ventricular arrhythmia; intravenous injection 10-50 mg): inhibit ventricular arrhythmia in patients with myocardial infarction

Compound: CCN(CC)CCNC(=O)c1ccc(N)cc1 [Procainamide, procainamide]
- antiarrhythmic properties / activity of prior art compounds (cardiac arrhythmia): activity as antiarrhythmic agents
- toxic effects of prior art antiarrhythmic drugs (cardiac arrhythmia): various toxic effects
- curative effect, number of rabbits reversed/tested ([1]; 1.0 mg/kg i.v.): 0/4
- curative effect, number of rabbits reversed/tested ([1]; 10.0 mg/kg i.v.): 2/4
- arrhythmogenic dose of ouabain increased to more than 110 %, number of rabbits ([3]; 1.0 mg/kg i.v., 4 rabbits): 2 number of rabbits
- arrhythmogenic dose of ouabain in % of control arrhythmogenic dose, m ± SD ([3]; 1.0 mg/kg i.v.): 111 ± 18 % of control arrhythmogenic do
- arrhythmogenic dose of ouabain increased to more than 110 %, number of rabbits ([3]; 10.0 mg/kg i.v., 4 rabbits): 1 number of rabbits
- arrhythmogenic dose of ouabain in % of control arrhythmogenic dose, m ± SD ([3]; 10.0 mg/kg i.v.): 104 ± 20 % of control arrhythmogenic do

Compound: CC(C)NCC(O)COc1cccc2ccccc12 (stereo not shown) [Propranolol, propranolol]
- antiarrhythmic properties / activity of prior art compounds (cardiac arrhythmia): activity as antiarrhythmic agents
- toxic effects of prior art antiarrhythmic drugs (cardiac arrhythmia): various toxic effects
- curative effect, number of rabbits reversed/tested ([1]; 0.5 mg/kg i.v.): 1/5
- curative effect, number of rabbits reversed/tested ([1]; 2.0 mg/kg i.v.): 4/4
- arrhythmogenic dose of ouabain increased to more than 110 %, number of rabbits ([3]; 0.5 mg/kg i.v., 4 rabbits): 2 number of rabbits
- arrhythmogenic dose of ouabain in % of control arrhythmogenic dose, m ± SD ([3]; 0.5 mg/kg i.v.): 98 ± 28 % of control arrhythmogenic do
- arrhythmogenic dose of ouabain increased to more than 110 %, number of rabbits ([3]; 2.0 mg/kg i.v., 4 rabbits): 3 number of rabbits
- arrhythmogenic dose of ouabain in % of control arrhythmogenic dose, m ± SD ([3]; 2.0 mg/kg i.v.): 121 ± 26 % of control arrhythmogenic do

Compound: C=C[C@H]1C[N@@]2CC[C@H]1C[C@@H]2[C@@H](O)c1ccnc2ccc(OC)cc12 [Quinidine, quinidine]
- antiarrhythmic properties / activity of prior art compounds (cardiac arrhythmia): activity as antiarrhythmic agents
- toxic effects of prior art antiarrhythmic drugs (cardiac arrhythmia): various toxic effects
- curative effect, number of rabbits reversed/tested ([1]; 1.0 mg/kg i.v.): 2/4
- curative effect, number of rabbits reversed/tested ([1]; 10.0 mg/kg i.v.): 4/4
- arrhythmogenic dose of ouabain increased to more than 110 %, number of rabbits ([3]; 1.0 mg/kg i.v., 4 rabbits): 2 number of rabbits
- arrhythmogenic dose of ouabain in % of control arrhythmogenic dose, m ± SD ([3]; 1.0 mg/kg i.v.): 104 ± 10 % of control arrhythmogenic do
- arrhythmogenic dose of ouabain increased to more than 110 %, number of rabbits ([3]; 10.0 mg/kg i.v., 4 rabbits): 3 number of rabbits
- arrhythmogenic dose of ouabain in % of control arrhythmogenic dose, m ± SD ([3]; 10.0 mg/kg i.v.): 131 ± 42 % of control arrhythmogenic do

Compound: CN(C)CCCN1c2ccccc2Sc2ccc(Cl)cc21 [chlorpromazine]
- potentiation of catecholamines [7]: potentiation of catecholamines
